Numbered stars: 1 amine (or outer) side, 2 acyl side, 3 side chain; on linkers, the order of the positions; unused ones are H or OH. Square brackets hold non-standard residues; d marks the D form. Peptide text beside a SMILES is read from it. * marks the point of attachment. ξ: configuration not given here. C18 diacid = O=C(O)CCCCCCCCCCCCCCCCC(=O)*; Docosanoyl = CCCCCCCCCCCCCCCCCCCCCC(=O)*; γGlu = O=C(O)[C@H](CCC(=O)[*:2])N[*:1]; Glutaryl = O=C(CCCC(=O)[*:2])[*:1]; HOOC(CH2)6CO = O=C(O)CCCCCCC(=O)*; Tridecanoyl = CCCCCCCCCCCCC(=O)*; Decanoyl = CCCCCCCCCC(=O)*; ξR = N=C(N)NCCCC(N)C(=O)O; Heptanoyl = CCCCCCC(=O)*; Octanoyl = CCCCCCCC(=O)*; Hexanoyl = CCCCCC(=O)*; AEEA = NCCOCCOCC(=O)O
molecular target: T1, Tyrosine-protein phosphatase non-receptor type 1 (Homo sapiens) (UniProt P18031); test: Inhibition of N-terminal His tagged recombinant human PTP1B expressed in Escherichia coli using pNPP as substrate assessed as substrate hydrolysis at 40 umol/L relative to control; details: dose 40.0 µmol/L
T1 sequence (whole entry): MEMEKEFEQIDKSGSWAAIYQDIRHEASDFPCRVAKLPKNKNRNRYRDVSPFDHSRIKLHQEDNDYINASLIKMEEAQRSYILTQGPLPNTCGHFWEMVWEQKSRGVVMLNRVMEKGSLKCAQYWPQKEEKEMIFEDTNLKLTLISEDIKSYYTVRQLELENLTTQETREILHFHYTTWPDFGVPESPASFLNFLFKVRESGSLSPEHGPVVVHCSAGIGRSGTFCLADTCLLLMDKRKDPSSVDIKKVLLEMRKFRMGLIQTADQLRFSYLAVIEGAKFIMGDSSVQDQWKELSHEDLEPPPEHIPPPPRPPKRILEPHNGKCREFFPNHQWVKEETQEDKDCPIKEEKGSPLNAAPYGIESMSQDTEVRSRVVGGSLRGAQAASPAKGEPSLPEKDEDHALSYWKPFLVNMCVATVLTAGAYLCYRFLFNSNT

inhibition [%]	SMILES
< 50	CCCCCCC(=O)N[C@H](C(=O)N[C@@H](C)C(=O)N[C@@H](CCC(N)=O)C(=O)N[C@@H](CCC(=O)O)C(=O)N[C@@H](CC(C)C)C(=O)N[C@@H](CCCNC(=N)N)C(=O)N[C@@H](CCCNC(=N)N)C(=O)N[C@H](C(=O)NCC(=O)N[C@@H](CC(=O)O)C(=O)N[C@@H](CCC(=O)O)C(=O)N[C@@H](Cc1ccccc1)C(=O)O)[C@@H](C)CC)[C@@H](C)CC (Heptanoyl-IAQELRRIGDEF-OH)
> 50	CCCCCCCCCCCCCCCCCCCCCC(=O)N[C@H](C(=O)N[C@@H](C)C(=O)N[C@@H](CCC(N)=O)C(=O)N[C@@H](CCC(=O)O)C(=O)N[C@@H](CC(C)C)C(=O)N[C@@H](CCCNC(=N)N)C(=O)NC(CCCNC(=N)N)C(=O)N[C@H](C(=O)NCC(=O)N[C@@H](CC(=O)O)C(=O)N[C@@H](CCC(=O)O)C(=O)N[C@@H](Cc1ccccc1)C(=O)O)[C@@H](C)CC)[C@@H](C)CC (stereo partly drawn) (Docosanoyl-IAQELR[ξR]IGDEF-OH)
< 50	CC[C@H](C)[C@H](NC(=O)CCCCCCCCC(=O)O)C(=O)N[C@@H](C)C(=O)N[C@@H](CCC(N)=O)C(=O)N[C@@H](CCC(=O)O)C(=O)N[C@@H](CC(C)C)C(=O)N[C@@H](CCCNC(=N)N)C(=O)N[C@@H](CCCNC(=N)N)C(=O)N[C@H](C(=O)NCC(=O)N[C@H](CC(=O)O)C(=O)N[C@@H](CCC(=O)O)C(=O)N[C@@H](Cc1ccccc1)C(=O)O)[C@@H](C)CC
< 50	CC[C@H](C)[C@H](NC(=O)COCCOCCNC(=O)COCCOCCNC(=O)CC[C@H](NC(=O)CCCCCCCCCCCCCCCCC(=O)O)C(=O)O)C(=O)N[C@@H](C)C(=O)N[C@@H](CCC(N)=O)C(=O)N[C@@H](CCC(=O)O)C(=O)N[C@@H](CC(C)C)C(=O)N[C@@H](CCCNC(=N)N)C(=O)N[C@@H](CCCNC(=N)N)C(=O)N[C@H](C(=O)NCC(=O)N[C@@H](CC(=O)O)C(=O)N[C@@H](CCC(=O)O)C(=O)N[C@@H](Cc1ccccc1)C(=O)O)[C@@H](C)CC ({C18 diacid-γGlu-AEEA-AEEA}-IAQELRRIGDEF-OH)
> 50	CCCCCCCCCC(=O)N[C@H](C(=O)N[C@@H](C)C(=O)N[C@@H](CCC(N)=O)C(=O)N[C@@H](CCC(=O)O)C(=O)N[C@@H](CC(C)C)C(=O)N[C@@H](CCCNC(=N)N)C(=O)N[C@@H](CCCNC(=N)N)C(=O)N[C@H](C(=O)NCC(=O)N[C@@H](CC(=O)O)C(=O)N[C@@H](CCC(=O)O)C(=O)N[C@@H](Cc1ccccc1)C(=O)O)[C@@H](C)CC)[C@@H](C)CC (Decanoyl-IAQELRRIGDEF-OH)
> 50	CCCCCCCCCCCCC(=O)N[C@H](C(=O)N[C@@H](C)C(=O)N[C@@H](CCC(N)=O)C(=O)N[C@@H](CCC(=O)O)C(=O)N[C@@H](CC(C)C)C(=O)N[C@@H](CCCNC(=N)N)C(=O)N[C@@H](CCCNC(=N)N)C(=O)N[C@H](C(=O)NCC(=O)N[C@@H](CC(=O)O)C(=O)N[C@@H](CCC(=O)O)C(=O)N[C@@H](Cc1ccccc1)C(=O)O)[C@@H](C)CC)[C@@H](C)CC (Tridecanoyl-IAQELRRIGDEF-OH)
< 50	CCCCCC(=O)N[C@H](C(=O)N[C@@H](C)C(=O)N[C@@H](CCC(N)=O)C(=O)N[C@@H](CCC(=O)O)C(=O)N[C@@H](CC(C)C)C(=O)N[C@@H](CCCNC(=N)N)C(=O)N[C@@H](CCCNC(=N)N)C(=O)N[C@H](C(=O)NCC(=O)N[C@@H](CC(=O)O)C(=O)N[C@@H](CCC(=O)O)C(=O)N[C@@H](Cc1ccccc1)C(=O)O)[C@@H](C)CC)[C@@H](C)CC (Hexanoyl-IAQELRRIGDEF-OH)
< 50	CC[C@H](C)[C@H](NC(=O)CCCC(=O)O)C(=O)N[C@@H](C)C(=O)N[C@@H](CCC(N)=O)C(=O)N[C@@H](CCC(=O)O)C(=O)N[C@@H](CC(C)C)C(=O)N[C@@H](CCCNC(=N)N)C(=O)N[C@@H](CCCNC(=N)N)C(=O)N[C@H](C(=O)NCC(=O)N[C@@H](CC(=O)O)C(=O)N[C@@H](CCC(=O)O)C(=O)N[C@@H](Cc1ccccc1)C(=O)O)[C@@H](C)CC (Glutaryl-IAQELRRIGDEF-OH)
< 50	CCCCCCCC(=O)N[C@H](C(=O)N[C@@H](C)C(=O)N[C@@H](CCC(N)=O)C(=O)N[C@@H](CCC(=O)O)C(=O)N[C@@H](CC(C)C)C(=O)N[C@@H](CCCNC(=N)N)C(=O)N[C@@H](CCCNC(=N)N)C(=O)N[C@H](C(=O)NCC(=O)N[C@@H](CC(=O)O)C(=O)N[C@@H](CCC(=O)O)C(=O)N[C@@H](Cc1ccccc1)C(=O)O)[C@@H](C)CC)[C@@H](C)CC (Octanoyl-IAQELRRIGDEF-OH)
< 50	CC[C@H](C)[C@H](NC(=O)CCCCCCC(=O)O)C(=O)N[C@@H](C)C(=O)N[C@@H](CCC(N)=O)C(=O)N[C@@H](CCC(=O)O)C(=O)N[C@@H](CC(C)C)C(=O)N[C@@H](CCCNC(=N)N)C(=O)N[C@@H](CCCNC(=N)N)C(=O)N[C@H](C(=O)NCC(=O)N[C@@H](CC(=O)O)C(=O)N[C@@H](CCC(=O)O)C(=O)N[C@@H](Cc1ccccc1)C(=O)O)[C@@H](C)CC ({HOOC(CH2)6CO}-IAQELRRIGDEF-OH)

molecular target: T2, Tyrosine-protein phosphatase non-receptor type 1 (Homo sapiens, UniProt P18031); test: Inhibition of N-terminal His tagged recombinant human PTP1B expressed in Escherichia coli using pNPP as substrate assessed as substrate hydrolysis; details: not given
T2 sequence (P18031 whole entry): T1 sequence (whole entry)

IC50 [µM]	SMILES
6.78	CCCCCCCCCCCCCCCCCCCCCC(=O)N[C@H](C(=O)N[C@@H](C)C(=O)N[C@@H](CCC(N)=O)C(=O)N[C@@H](CCC(=O)O)C(=O)N[C@@H](CC(C)C)C(=O)N[C@@H](CCCNC(=N)N)C(=O)NC(CCCNC(=N)N)C(=O)N[C@H](C(=O)NCC(=O)N[C@@H](CC(=O)O)C(=O)N[C@@H](CCC(=O)O)C(=O)N[C@@H](Cc1ccccc1)C(=O)O)[C@@H](C)CC)[C@@H](C)CC (stereo partly drawn) (Docosanoyl-IAQELR[ξR]IGDEF-OH)
2.14	CCCCCCCCCC(=O)N[C@H](C(=O)N[C@@H](C)C(=O)N[C@@H](CCC(N)=O)C(=O)N[C@@H](CCC(=O)O)C(=O)N[C@@H](CC(C)C)C(=O)N[C@@H](CCCNC(=N)N)C(=O)N[C@@H](CCCNC(=N)N)C(=O)N[C@H](C(=O)NCC(=O)N[C@@H](CC(=O)O)C(=O)N[C@@H](CCC(=O)O)C(=O)N[C@@H](Cc1ccccc1)C(=O)O)[C@@H](C)CC)[C@@H](C)CC (Decanoyl-IAQELRRIGDEF-OH)
0.835	CCCCCCCCCCCCC(=O)N[C@H](C(=O)N[C@@H](C)C(=O)N[C@@H](CCC(N)=O)C(=O)N[C@@H](CCC(=O)O)C(=O)N[C@@H](CC(C)C)C(=O)N[C@@H](CCCNC(=N)N)C(=O)N[C@@H](CCCNC(=N)N)C(=O)N[C@H](C(=O)NCC(=O)N[C@@H](CC(=O)O)C(=O)N[C@@H](CCC(=O)O)C(=O)N[C@@H](Cc1ccccc1)C(=O)O)[C@@H](C)CC)[C@@H](C)CC (Tridecanoyl-IAQELRRIGDEF-OH)
